Results from the C3SDB collision cross section collection.
Values joined by “and” are separate entries in the source; they are usually repeats but may differ in a detail not shown here. Equal entries are not always repeated.

Tests used:
[1] = instrument: DT, stepped-field
[2] = [M+H]+; instrument: TW; Major Mix IMS/Tof Calibration Kit (Waters)

| SMILES | collision cross section (N2) ([1]; [M+Na]+) | collision cross section (N2) ([1]; [M+H]+) | other results |
| --- | --- | --- | --- |
| OCC1OC(OC2C(CO)OC(OC3C(CO)OC(OC4C(CO)OC(O)C(O)C4O)C(O)C3O)C(O)C2O)C(O)C(O)C1O (stereo not given) [(Hex)4] |  |  | collision cross section (N2) ([1]; [M+H-H2O]+): 234.7 Å²; collision cross section (N2) ([1]; [M+K]+): 236.6 Å²; collision cross section (N2) ([1]; [M+Na-H2O]+): 234.8 Å² |
| OCC1OC(OC2C(CO)OC(OC3C(CO)OC(OC4C(CO)OC(OC5C(CO)OC(OC6C(CO)OC(OC7C(CO)OC(OC8C(CO)OC(O)C(O)C8O)C(O)C7O)C(O)C6O)C(O)C5O)C(O)C4O)C(O)C3O)C(O)C2O)C(O)C(O)C1O (stereo not given) [(Hex)8] | 320.9 Å² and 338.8 Å² |  | collision cross section (N2) ([1]; [M+H-H2O]+): 333.8 Å² |
| O=CC(OC1OC(CO)C(OC2OC(CO)C(O)C(O)C2O)C(OC2OC(CO)C(O)C(O)C2O)C1OC1OC(CO)C(O)C(O)C1O)C(OC1OC(CO)C(O)C(O)C1O)C(OC1OC(CO)C(O)C(O)C1O)C(COC1OC(CO)C(O)C(O)C1O)OC1OC(CO)C(O)C(O)C1O (stereo not given) [(Hex)9] | 340.5 Å² and 351.9 Å² |  | collision cross section (N2) ([1]; [M+H-H2O]+): 356.2 Å² |
| OCC1OC(OC2C(CO)OC(OC3C(CO)OC(OC4C(CO)OC(OC5C(CO)OC(OC6C(CO)OC(OC7C(CO)OC(OC8C(CO)OC(OC9C(CO)OC(OC%10C(CO)OC(OC%11C(CO)OC(OC%12C(CO)OC(O)C(O)C%12O)C(O)C%11O)C(O)C%10O)C(O)C9O)C(O)C8O)C(O)C7O)C(O)C6O)C(O)C5O)C(O)C4O)C(O)C3O)C(O)C2O)C(O)C(O)C1O (stereo not given) [(Hex)12] |  |  | collision cross section (N2) ([1]; [M+H-H2O]+): 400.3 Å² and 422.9 Å²; collision cross section (N2) ([1]; [M+Na-H2O]+): 390.6 Å² and 410 Å² |
| C[C@H](N)C(=O)N[C@@H](Cc1ccccc1)C(=O)N[C@@H](CC(=O)O)C(=O)N[C@@H](CCC(=O)O)C(=O)N[C@@H](CCCCN)C(=O)O [AFDEK] |  | 238.3 Å² |  |
| CSCC[C@H](NC(=O)[C@H](C)N)C(=O)NCC(=O)N[C@@H](Cc1ccc(O)cc1)C(=O)N[C@@H](CCCNC(=N)N)C(=O)O [AMGYR] |  | 245 Å² |  |
| OC[C@H]1O[C@@H]2O[C@H]3[C@H](O)[C@@H](O)[C@@H](O[C@H]4[C@H](O)[C@@H](O)[C@@H](O[C@H]5[C@H](O)[C@@H](O)[C@@H](O[C@H]6[C@H](O)[C@@H](O)[C@@H](O[C@H]7[C@H](O)[C@@H](O)[C@@H](O[C@H]8[C@H](O)[C@@H](O)[C@@H](O[C@H]1[C@H](O)[C@H]2O)O[C@@H]8CO)O[C@@H]7CO)O[C@@H]6CO)O[C@@H]5CO)O[C@@H]4CO)O[C@@H]3CO [Beta-Cyclodextrin] | 319.7 Å² | 301.3 Å² and 319.6 Å² | collision cross section (N2) ([1]; [M+K]+): 320.3 Å² |
| CCC(C)[C@H](NC(=O)[C@H](CO)NC(=O)[C@H](C)NC(=O)[C@@H](N)CS)C(=O)N[C@@H](CCC(N)=O)C(=O)N[C@@H](CCCCN)C(=O)O (stereo not given in full) [CASIQK] |  | 252.8 Å² |  |
| CC(C)C[C@H](NC(=O)[C@H](Cc1c[nH]cn1)NC(=O)[C@@H](N)CC(=O)O)C(=O)N[C@H](C(=O)NCC(=O)N[C@@H](CCCNC(=N)N)C(=O)O)C(C)C [DHLVGR] |  | 249.4 Å² |  |
| CCC(C)[C@H](NC(=O)[C@@H](N)CC(=O)O)C(=O)N[C@H](C(=O)NCC(=O)N[C@@H](C)C(=O)N[C@H](C(=O)N[C@@H](CC(C)C)C(=O)N[C@@H](CCCCN)C(=O)O)C(C)C)C(C)C (stereo not given in full) [DIVGAVLK] |  | 291.8 Å² and 277.8 Å² |  |
| N=C(N)NCCC[C@H](NC(=O)[C@H](CCC(=O)O)NC(=O)CNC(=O)[C@@H](N)Cc1ccccc1)C(=O)O [FGER] |  | 217.1 Å² |  |
| CCC(C)[C@H](NC(=O)[C@H](CCC(N)=O)NC(=O)CN)C(=O)N[C@H](C(=O)NCC(=O)N[C@@H](CCCNC(=N)N)C(=O)O)C(C)C (stereo not given in full) [GQIVGR] |  | 245.5 Å² |  |
| CCC(C)[C@H](NC(=O)[C@@H](NC(=O)CN)C(C)C)C(=O)N[C@@H](Cc1ccccc1)C(=O)N[C@@H](Cc1ccc(O)cc1)C(=O)N[C@@H](CCC(=O)O)C(=O)N[C@@H](CO)C(=O)N[C@@H](Cc1c[nH]cn1)C(=O)NCC(=O)N[C@@H](CCCCN)C(=O)O (stereo not given in full) [GVIFYESHGK] |  | 332.9 Å² |  |
| CC(C)C[C@H](NC(=O)[C@@H](NC(=O)CN)C(C)C)C(=O)N[C@@H](Cc1c[nH]cn1)C(=O)N[C@@H](C)C(=O)N[C@H](C(=O)N[C@@H](CCCCN)C(=O)O)C(C)C [GVLHAVK] |  | 269.9 Å² |  |
| OC[C@H]1O[C@@H]2O[C@H]3[C@H](O)[C@@H](O)[C@@H](O[C@H]4[C@H](O)[C@@H](O)[C@@H](O[C@H]5[C@H](O)[C@@H](O)[C@@H](O[C@H]6[C@H](O)[C@@H](O)[C@@H](O[C@H]7[C@H](O)[C@@H](O)[C@@H](O[C@H]8[C@H](O)[C@@H](O)[C@@H](O[C@H]9[C@H](O)[C@@H](O)[C@@H](O[C@H]1[C@H](O)[C@H]2O)O[C@@H]9CO)O[C@@H]8CO)O[C@@H]7CO)O[C@@H]6CO)O[C@@H]5CO)O[C@@H]4CO)O[C@@H]3CO [Gamma-Cyclodextrin] | 322.1 Å² | 322.6 Å² | collision cross section (N2) ([1]; [M+Cs]+): 338.2 Å²; collision cross section (N2) ([1]; [M+K]+): 324.8 Å²; collision cross section (N2) ([1]; [M+Li]+): 317.7 Å²; collision cross section (N2) ([1]; [M+Rb]+): 327.3 Å² |
| CCCCCCCCCCCCC=CC[C@@H](O)[C@H](CO[C@@H]1O[C@H](CO)[C@@H](O)C(O)C1O)NC(=O)CCCCCCCCCCCCCCC (stereo not given in full) [GlcCer(34:1)] | 277.3 Å² |  |  |
| CCCCCCCCCCCCC=CC[C@@H](O)[C@H](CO[C@@H]1O[C@H](CO)[C@@H](O)C(O)C1O)NC(=O)CC=CCCCCCCCCCCCCCCCC (stereo not given in full) [GlcCer(38:2)] | 291.4 Å² |  |  |
| CCCCCCCCCCCCCCCCCCCCCC(=O)N[C@@H](CO[C@@H]1O[C@H](CO)[C@@H](O)C(O)C1O)[C@H](O)CCCCCCCCCCCCCCC (stereo not given in full) [GlcCer(40:0)] | 302.3 Å² |  |  |
| CCCCCCCCCCCCC=CC[C@@H](O)[C@H](CO[C@@H]1O[C@H](CO)[C@@H](O)C(O)C1O)NC(=O)CC=CCCCCCCCCCCCCCCCCCCC (stereo not given in full) [GlcCer(41:2)] | 299.6 Å² |  |  |

| SMILES | collision cross section (N2) ([1]; [M+Na]+) | collision cross section (N2) ([1]; [M+H]+) | other results |
| --- | --- | --- | --- |
| CCCCCCCCCCCCC=CC[C@@H](O)[C@H](CO[C@@H]1O[C@H](CO)[C@@H](O)C(O)C1O)NC(=O)CC=CCC=CCCCCCCCCCCCCCCCCC (stereo not given in full) [GlcCer(42:3)] | 302.3 Å² |  |  |
| CCCCCCCCCCCCC=CC[C@@H](O)[C@H](CO[C@@H]1O[C@H](CO)[C@@H](O)C(O)C1O)NC(=O)CC=CCC=CCCCCCCCCCCCCCCCCCC (stereo not given in full) [GlcCer(43:3)] | 306.1 Å² |  |  |
| CC(=O)NC1C(OC2C(O)C(CO)OC(OC(C(O)CO)C(O)C(O)C=O)C2O)OC(CO)C(O)C1O (stereo not given) [HexNAc-(Hex)2] | 220 Å² |  | collision cross section (N2) ([1]; [M+Na-H2O]+): 216.3 Å² |
| CC(=O)NC1C(O)OC(CO)C(O)C1OC1OC(CO)C(O)C(O)C1O (stereo not given) [HexNAc-Hex] | 190.2 Å² |  | collision cross section (N2) ([1]; [M+K]+): 191.1 Å²; collision cross section (N2) ([1]; [M+Na-H2O]+): 184.3 Å² |
| OC[C@H]1O[C@H](O[C@H]2[C@H](O)[C@@H](O)[C@@H](O[C@H]3[C@H](O)[C@@H](O)[C@@H](O[C@H]4[C@H](O)[C@@H](O)[C@@H](O[C@H]5[C@H](O)[C@@H](O)[C@@H](O[C@H]6[C@H](O)[C@@H](O)[C@@H](O[C@H]7[C@H](O)[C@@H](O)[C@@H](O)O[C@@H]7CO)O[C@@H]6CO)O[C@@H]5CO)O[C@@H]4CO)O[C@@H]3CO)O[C@@H]2CO)[C@H](O)[C@@H](O)[C@@H]1O [Maltoheptaose] | 303.1 Å² | 303.3 Å² | collision cross section (N2) ([1]; [M+K]+): 303.4 Å² |
| OC[C@H]1O[C@H](O[C@H]2[C@H](O)[C@@H](O)[C@@H](O[C@H]3[C@H](O)[C@@H](O)[C@@H](O[C@H]4[C@H](O)[C@@H](O)C(O)O[C@@H]4CO)O[C@@H]3CO)O[C@@H]2CO)[C@H](O)[C@@H](O)[C@@H]1O (stereo not given in full) [Maltotetraose] | 235.3 Å² | 238.3 Å² |  |
| OC[C@H]1O[C@H](O[C@H]2[C@H](O)[C@@H](O)[C@@H](O[C@H]3[C@H](O)[C@@H](O)[C@@H](O)O[C@@H]3CO)O[C@@H]2CO)[C@H](O)[C@@H](O)[C@@H]1O [Maltotriose] | 212.8 Å² | 216.3 Å² | collision cross section (N2) ([1]; [M+K]+): 216.8 Å² |
| CCCCC=CCC=CCC=CCC(=O)OC[C@H](COP(=O)(O)OCCN)OC(=O)CC=CCC=CCC=CCCCC [PE(28:6)] |  |  | collision cross section (N2) ([1]; [M+K]+): 248.7 Å² |
| CC1=C(CC(=O)O)c2cc(F)ccc2/C1=C\c1ccc(S(C)=O)cc1 (stereo not given) [Sulindac] |  |  | collision cross section (N2) [2]: 192.6 Å² |
| CNS(=O)(=O)Cc1ccc2[nH]cc(CCN(C)C)c2c1 [Sumatriptan] |  |  | collision cross section (N2) [2]: 162.1 Å² |
| CC[C@@H](c1cccc(O)c1)[C@@H](C)CN(C)C [Tapentadol] |  |  | collision cross section (N2) [2]: 152.1 Å² |
| CN(C/C=C/C#CC(C)(C)C)Cc1cccc2ccccc12 [Terbinafine] |  |  | collision cross section (N2) [2]: 187.2 Å² |
| CSc1ccc2c(c1)N(CCC1CCCCN1C)c1ccccc1S2 (stereo not given) [Thioridazine] |  |  | collision cross section (N2) [2]: 184.9 Å² |
| Cc1ccsc1C(=CCCN1CCC[C@@H](C(=O)O)C1)c1sccc1C [Tiagabine] |  |  | collision cross section (N2) [2]: 184.5 Å² |
| CC(C(=O)O)c1ccc(C(=O)c2ccccc2)s1 (stereo not given) [Tiaprofenic acid] |  |  | collision cross section (N2) [2]: 155.1 Å² |
| COc1cc(Cc2cnc(N)nc2N)cc(OC)c1OC [Trimethoprim] |  |  | collision cross section (N2) [2]: 170.8 Å² |
| CNCCC=C1c2ccccc2CCc2ccccc21 [Triptyline-M nor] |  |  | collision cross section (N2) [2]: 164.5 Å² |
| c1cnc2cc3c(cc2n1)[C@@H]1CNC[C@H]3C1 [Varenicline] |  |  | collision cross section (N2) [2]: 151 Å² |
| O=C1Cc2cc(CCN3CCN(c4nsc5ccccc45)CC3)c(Cl)cc2N1 [Ziprasidone] |  |  | collision cross section (N2) [2]: 192.6 Å² |

More lines, main results first:

| collision cross section (N2) ([1]; [M+Na]+) | collision cross section (N2) ([1]; [M+H]+) | SMILES | other results |
| --- | --- | --- | --- |
| 297.8 Å² |  | CC/C=C\C/C=C\C/C=C\C/C=C\C/C=C\CCCC(=O)O[C@H](COC(=O)CCCC/C=C\C/C=C\C/C=C\C/C=C\CC)COP(=O)([O-])OCC[N+](C)(C)C [PC(38:9)] |  |
| 303.9 Å² |  | CCC=CCC=CCC=CCC=CCC=CCC=CCC(=O)OC[C@H](COP(=O)(O)OCC[N+](C)(C)C)OC(=O)CC=CCC=CCC=CCC=CCC=CCC=CCC [PC(42:12)] |  |
